From patent publication US9040524B2, “Antifungal 5,6-dihydro-4H-pyrrolo[1,2-a][1,4]-benzodiazepines and 6H-pyrrolo[1,2-a][1,4]benzodiazepines substituted with bicycle benzene derivatives” (JANSSEN PHARMACEUTICA NV, priority 2010, dated 2015)

Assays:
Assay type in all cases: cell-based
[1] = system: Microsporum canis; assay: Antifungal activity in vitro, resazurin growth inhibition screen: Microsporum canis; conditions: Microsporum canis B68128; for IC50: read-out: Inf. B pIC50 (converted)
Procedure, shortened: (§1)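 In this broth screen, 10^3 cfu of each cryopreserved isolate met compound dilutions reaching 64 μM at most. Viability was read with resazurin.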

[2] = system: Trichophyton mentagrophytes; assay: Antifungal activity in vitro, resazurin growth inhibition screen: Trichophyton mentagrophytes; conditions: Trichophyton mentagrophytes B70554; for IC50: read-out: Inf. G pIC50 (converted)
Procedure, shortened: as §1

[3] = system: Trichophyton rubrum; assay: Antifungal activity in vitro, resazurin growth inhibition screen: Trichophyton rubrum; conditions: Trichophyton rubrum B68183; for IC50: read-out: Inf. C pIC50 (converted)
Procedure, shortened: as §1

[4] = system: Scedosporium apiospermum; assay: Antifungal activity in vitro, resazurin growth inhibition screen: Scedosporium apiospermum; conditions: Scedosporium apiospermum IHEM3817; for IC50: read-out: Inf. H pIC50 (converted)
Protocol: (§2) The standard susceptibility screen was performed in 96-well plates (U-bottom, Greiner Bio-One). Serial dilutions (2-fold or 4-fold) of 20 mM compound stock solutions were made in 100% DMSO, followed by an intermediate dilution step in water. These serial dilutions (10 μl) were then spotted onto test-plates that could be stored in the dark at 4° C. for a maximum period of 2 weeks. An adequate broad dose-range was included with 64 μM as the highest in-test concentration. […] The different fungal species/isolates (Table 3a) were cryopreserved and 1/1000 diluted in medium just prior to use. A standard inoculum of 200 μl containing 10^3 colony-forming unit (cfu) was then added to each well. A positive control (100% growth=fungal culture without antifungal) and a negative control (0% growth=RPMI-MOPS medium) were included on each plate.

[5] = system: Scedosporium prolificans; assay: Antifungal activity in vitro, resazurin growth inhibition screen: Scedosporium prolificans; conditions: Scedosporium prolificans IHEM21157; for IC50: Lomentospora prolificans, read-out: Inf. I pIC50 (converted)
Protocol: as §2

[6] = system: Sporothrix schenkii; assay: Antifungal activity in vitro, resazurin growth inhibition screen: Sporothrix schenkii; conditions: Sporothrix schenkii B62482; for IC50: read-out: Inf. A pIC50 (converted)
Procedure, shortened: as §1

[7] = system: Aspergillus fumigatus; assay: Antifungal activity in vitro, resazurin growth inhibition screen: Aspergillus fumigatus; conditions: Aspergillus fumigatus B42928; for IC50: read-out: Inf. E pIC50 (converted)
Procedure, shortened: as §1

[8] = system: Candida parapsilosis; assay: Antifungal activity in vitro, resazurin growth inhibition screen: Candida parapsilosis; conditions: Candida parapsilosis B66126; for IC50: Lodderomyces parapsilosis, read-out: Inf. D pIC50 (converted)
Procedure, shortened: as §1

[9] = system: Cryptococcus neoformans; assay: Antifungal activity in vitro, resazurin growth inhibition screen: Cryptococcus neoformans; conditions: Cryptococcus neoformans B66663; for IC50: read-out: Inf. F pIC50 (converted)
Procedure, shortened: as §1

[10] = system: Rhizopus oryzae; assay: Antifungal activity in vitro, resazurin growth inhibition screen: Rhizopus oryzae; conditions: Rhizopus oryzae IHEM5223; for IC50: Rhizopus arrhizus, read-out: Inf. J pIC50 (converted)
Protocol: as §2

[11] = system: Rhizomucor miehei; assay: Antifungal activity in vitro, resazurin growth inhibition screen: Rhizomucor miehei; conditions: Rhizomucor miehei IHEM13391; for IC50: read-out: Inf. K pIC50 (converted)
Protocol: as §2

SMILES | Inf. B pIC50 [1] | Inf. G pIC50 [2] | Inf. C pIC50 [3] | Inf. H pIC50 [4] | Inf. I pIC50 [5] | Inf. A pIC50 [6] | Inf. E pIC50 [7] | Inf. D pIC50 [8] | Inf. F pIC50 [9] | Inf. J pIC50 [10] | Inf. K pIC50 [11] | IC50 [1] [µM] | IC50 [2] [µM] | IC50 [3] [µM] | IC50 [6] [µM] | IC50 [7] [µM] | IC50 [8] [µM] | IC50 [9] [µM] | other results
Br.Clc1cccc2c1CNC(c1ccc3c(c1)CCC3)c1cccn1-2 (stereo not shown) [Compound 13, 7-chloro-4-(2,3-dihydro-1H-inden-5-yl)-5,6-dihydro-4H-pyrrolo[1,2-a][1,4]benzo-diazepine .HBr] | 6.36 | 6.95 | 6.47 | 4.52 | 5.72 | 5.15 | 5.70 | 5.52 | 5.30 | <4.19 | <4.19 |  |  |  |  |  |  |  | 
Clc1cc(Cl)c2c(c1)-n1cccc1C(c1ccc3c(c1)CCC3)=NC2 [Compound 23, 7,9-dichloro-4-(2,3-dihydro-1H-inden-5-yl)-6H-pyrrolo[1,2-a][1,4]benzodiazepine] |  |  |  |  |  |  |  |  |  |  |  | 1 | 0.794 | 0.676 | 33.9 | 0.912 | 2 | 0.457 | IC50 [4]: 24 µM; IC50 [5]: 0.603 µM; IC50 [10]: > 64.6 µM; IC50 [11]: > 64.6 µM
Cl.Clc1cccc2c1CNC(c1ccc3c(c1)CCOC3)c1cccn1-2 (stereo not shown) [Compound 28, 7-chloro-4-(3,4-dihydro-1H-2-benzopyran-6-yl)-5,6-dihydro-4H-pyrrolo[1,2-a]-[1,4]benzodiazepine .HCl] | 6.24 | 6.29 | 6.66 | 4.97 | 4.63 | <4.19 | 5.99 | 5.53 | 4.71 | <4.19 | 4.39 |  |  |  |  |  |  |  | 
Clc1cccc2c1CN=C(c1ccc3c(c1)CCOC3)c1cccn1-2 [Compound 37, 7-chloro-4-(3,4-dihydro-1H-2-benzopyran-6-yl)-6H-pyrrolo[1,2-a][1,4]benzo-diazepine] | 6.62 | 6.47 | 6.89 | 4.48 | 5.85 | 5.26 | 6.77 | 5.79 | 5.88 | <4.19 | <4.19 |  |  |  |  |  |  |  | 
Fc1cccc2c1CN=C(c1ccc3c(c1)CCOC3)c1cccn1-2 [Compound 39, 4-(3,4-dihydro-1H-2-benzopyran-6-yl)-7-fluoro-6H-pyrrolo[1,2-a][1,4]benzo-diazepine] | 6.36 | 6.54 | 6.89 | 5.40 | 5.76 | 4.95 | 6.77 | 5.83 | 5.21 | <4.19 | 4.38 |  |  |  |  |  |  |  | 
Clc1cc(Cl)c2c(c1)CN=C(c1ccc3c(c1)CCO3)c1cccn1-2 [Compound 48, 8,10-dichloro-4-(2,3-dihydro-5-benzofuranyl)-6H-pyrrolo[1,2-a][1,4]benzo-diazepine] | 6.30 | 6.29 | 6.78 | 4.94 | 5.79 | 5.40 | 5.00 | <4.19 | 5.70 | <4.19 | <4.19 |  |  |  |  |  |  |  | 
Cl.O=C1CCc2cc(C3NCc4c(Cl)cccc4-n4cccc43)ccc21 (stereo not shown) [Compound 51, 5-(7-chloro-5,6-dihydro-4H-pyrrolo[1,2-a][1,4]benzodiazepin-4-yl)-2,3-dihydro-1H-inden-1-one .HCl] | 5.59 | 5.32 | 5.84 | 4.67 | 5.32 | 4.46 | 5.24 | 4.91 | 4.74 | <4.19 | 4.29 |  |  |  |  |  |  |  | 
O=C1CCCc2cc(C3=NCc4c(F)cccc4-n4cccc43)ccc21 [Compound 59, 6-(7-fluoro-6H-pyrrolo[1,2-a][1,4]benzodiazepin-4-yl)-3,4-dihydro-1(2H)-naphthalenone] |  |  |  |  |  |  |  |  |  |  |  | 0.372 | 0.339 | 0.129 | 4.27 | 0.398 | 2.75 | 1.12 | IC50 [4]: 0.741 µM; IC50 [5]: 1.48 µM; IC50 [10]: > 12.9 µM; IC50 [11]: 1.48 µM
FC1(F)CCc2cc(C3=NCc4ccc(Cl)cc4-n4cccc43)ccc2O1 [Compound 71, 9-chloro-4-(2,2-difluoro-3,4-dihydro-2H-1-benzopyran-6-yl)-6H-pyrrolo[1,2-a]-[1,4]benzodiazepine] |  |  |  |  |  |  |  |  |  |  |  | 0.617 | 0.309 | 0.269 | 1.95 | 0.219 | 8.13 | 0.1 | 
FC1(F)CCc2cc(C3=NCc4cccc(Cl)c4-n4cccc43)ccc2O1 [Compound 72, 10-chloro-4-(2,2-difluoro-3,4-dihydro-2H-1-benzopyran-6-yl)-6H-pyrrolo[1,2-a]-[1,4]benzodiazepine] |  |  |  |  |  |  |  |  |  |  |  | 0.407 | 1.62 | 0.407 | 2.63 | 0.617 | 11 | 0.38 | 
Fc1cc(F)c2c(c1)-n1cccc1C(c1ccc3c(c1)CCC(F)(F)O3)=NC2 [Compound 73, 4-(2,2-difluoro-3,4-dihydro-2H-1-benzopyran-6-yl)-7,9-difluoro-6H-pyrrolo[1,2-a]-[1,4]benzodiazepine] |  |  |  |  |  |  |  |  |  |  |  | 9.33 | 32.4 | 32.4 | 31.6 | > 64.6 | 2.14 | 4.68 | 
FC1(F)Oc2ccc(C3=NCc4c(Cl)cccc4-n4cccc43)cc2O1 [Compound 74, 7-chloro-4-(2,2-difluoro-1,3-benzodioxol-5-yl)-6H-pyrrolo[1,2-a][1,4]benzo-diazepine] | 6.87 | 6.58 | 7.39 | 5.5 | 7.05 | <4.19 | 7.08 | <4.19 | <4.19 | <4.19 | <4.19 |  |  |  |  |  |  |  | 
FC1(F)Oc2ccc(C3=NCc4ccc(Cl)cc4-n4cccc43)cc2O1 [Compound 75, 9-chloro-4-(2,2-difluoro-1,3-benzodioxol-5-yl)-6H-pyrrolo[1,2-a][1,4]benzo-diazepine] | 5.74 | 6.42 | 6.85 | <4.19 | <4.19 | 4.85 | 6.24 | 5.09 | 5.84 | <4.19 | <4.19 |  |  |  |  |  |  |  | 
CN1CCc2cc(C3=NCc4c(F)cccc4-n4cccc43)ccc21 [Compound 81, 4-(2,3-dihydro-1-methyl-1H-indol-5-yl)-7-fluoro-6H-pyrrolo[1,2-a][1,4]benzo-diazepine] | 5.28 | 4.90 | 5.65 |  |  | 4.49 | 4.39 | 4.60 | 5.29 |  |  |  |  |  |  |  |  |  | 
Clc1cccc2c1-n1cccc1C(c1ccc3c(c1)CCOC3)=NC2 [Compound 82, 10-chloro-4-(3,4-dihydro-1H-2-benzopyran-6-yl)-6H-pyrrolo[1,2-a][1,4]benzo-diazepine] | 5.69 | 5.56 | 5.95 |  |  | 5.06 | 5.56 | 4.77 | 5.26 |  |  |  |  |  |  |  |  |  | 
